From patent EP4763845A1, “CYANO AROMATIC RING DERIVATIVE AND PHARMACEUTICAL USE THEREOF” (Haisco Pharmaceutical Group Co., Ltd., priority 2023, dated 2025) come the findings set out here.

One may read the DC50 as the concentration at which degradation of the target reaches its halfway point.

One test addresses T1, AR protein (Homo sapiens, UniProt P10275).
T1 construct: VCap is a human prostate cancer cell line purchased from ATCC; host or cells: VCaP human prostate cancer cells
T1 sequence (P10275 1-920): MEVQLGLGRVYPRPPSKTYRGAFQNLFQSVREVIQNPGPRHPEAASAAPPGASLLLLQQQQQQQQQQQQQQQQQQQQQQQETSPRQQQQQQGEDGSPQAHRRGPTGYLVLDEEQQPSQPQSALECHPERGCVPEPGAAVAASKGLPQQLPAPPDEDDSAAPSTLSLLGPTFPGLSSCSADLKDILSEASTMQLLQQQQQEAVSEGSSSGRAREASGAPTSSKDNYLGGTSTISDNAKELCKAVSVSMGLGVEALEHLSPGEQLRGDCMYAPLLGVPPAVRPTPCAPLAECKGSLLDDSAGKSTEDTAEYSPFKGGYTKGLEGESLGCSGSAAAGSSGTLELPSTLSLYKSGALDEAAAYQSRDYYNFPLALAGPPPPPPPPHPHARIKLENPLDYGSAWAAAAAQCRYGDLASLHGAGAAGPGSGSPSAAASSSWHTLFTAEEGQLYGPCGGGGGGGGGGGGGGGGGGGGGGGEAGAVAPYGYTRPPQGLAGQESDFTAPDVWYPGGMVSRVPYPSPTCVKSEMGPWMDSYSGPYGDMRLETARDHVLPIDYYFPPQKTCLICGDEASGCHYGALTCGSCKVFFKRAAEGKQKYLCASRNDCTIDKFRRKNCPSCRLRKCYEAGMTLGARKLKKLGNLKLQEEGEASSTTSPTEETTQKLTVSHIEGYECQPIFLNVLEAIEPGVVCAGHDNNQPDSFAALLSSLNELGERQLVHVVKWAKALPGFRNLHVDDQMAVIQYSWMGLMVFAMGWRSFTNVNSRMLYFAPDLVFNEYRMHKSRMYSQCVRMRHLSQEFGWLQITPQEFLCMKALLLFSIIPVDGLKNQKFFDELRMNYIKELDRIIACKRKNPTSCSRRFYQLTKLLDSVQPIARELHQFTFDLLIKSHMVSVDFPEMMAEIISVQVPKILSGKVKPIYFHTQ
Description: Detection of AR degradation in VCaP cells (automated western blot). The conditions noted are these: AR protein in VCaP cells, concentration of 30 nM, 24 hours. Format: cell-based. On the procedure: VCap is a human prostate cancer cell line purchased from ATCC and cultured under the following conditions: DMEM + 10% FBS + 1% penicillin-streptomycin solution. The cells were cultured in a 37°C, 5% CO2 incubator. The cells were seeded in a 6-well plate, with 5 × 10^5 cells/well. After seeding, compounds at various concentrations were added, and the plate was incubated for 24 hours in the 37°C, 5% CO2 incubator. Following incubation, the cells were harvested and RIPA lysis buffer (beyotime, Cat. P0013B) was added. The cells were lysed on ice for 15 minutes and centrifuged at 12,000 rpm at 4°C for 10 minutes. The supernatant protein samples were collected and the protein was quantified using the BCA kit (Beyotime, Cat. P0009). Then the protein was diluted to 0.25 mg/mL. The expressions of AR (CST, Cat.5153S) and the internal reference β-actin (CST, Cat. 3700S) were detected using a fully automated western blot quantitative analyser (Proteinsimple). Using the "Compass for SW" software, the relative peak area of AR was calculated when the internal reference area was 10,000. The proportion of AR relative to the solvent control group at various drug concentrations was calculated according to Equation (1), where ARtreat represents the relative peak area of the compound-treated group, and ARsolvent represents the relative peak area of the solvent control group. The processed data obtained from Equation (1) were analysed using GraphPad Prism 8.3.0 software, and the DC50 value was calculated using a four-parameter nonlinear regression model. The degradation rate at a specified concentration was determined as 100-AR%. AR% = ARtreat/ ARsolvent × 100% [formula]
(In general: A western blot detects proteins with antibodies after separation by electrophoresis.)
Compound `CC1(C)[C@H](NC(=O)c2ccc(N3CCC(CN4CCN5c6cc(F)c(C(=O)N[C@H]7CCC(=O)NC7=O)cc6CC[C@@H]5C4)CC3)cc2)C(C)(C)[C@H]1Oc1ccc(C#N)c(C2CC2)c1` [Compound 119] came in with a Degradation rate % of more than 70%. Still for that read-out and setting: in the case of `COc1cc(O[C@H]2C(C)(C)[C@H](NC(=O)c3ccc(N4CCC5(CC4)CC(N4CCN6c7cc(F)c(C8CCC(=O)NC8=O)cc7CC[C@H]6C4)C5)cc3)C2(C)C)ccc1C#N` (some centres unmarked) [Trifluoroacetate of compound 121] it was more than 70%; in that of `COc1cc(O[C@H]2C(C)(C)[C@H](NC(=O)c3ccc(N4CCC(CN5CCN6c7ncc(C8CCC(=O)NC8=O)cc7CC[C@@H]6C5)CC4)cc3)C2(C)C)ccc1C#N` (some centres unmarked) [Compound 93], more than 70%.

In the case of `CC#CCOc1cc(O[C@H]2C(C)(C)[C@H](NC(=O)c3ccc(N4CCC(CN5CCN6c7cc(F)c(C(=O)N[C@H]8CCC(=O)NC8=O)cc7CC[C@@H]6C5)CC4)cc3)C2(C)C)ccc1C#N` [Trifluoroacetate of compound 99], the Degradation rate % was more than 70%.

Staying with this test, now noted: degradation of AR protein in VCaP cells, 24 hours incubation; read-out: DC50.
For `COc1cc(O[C@H]2C(C)(C)[C@H](NC(=O)c3ccc(N4CCC(CN5CCN6c7cc(F)c(C(=O)N[C@@H]8CCC(=O)NC8=O)cc7CC[C@H]6C5)CC4)cc3)C2(C)C)ccc1C#N` [Compound 14], the DC50 is less than 100 nM. For `CC1(C)[C@H](NC(=O)c2ccc(N3CCC4(CC3)CC(CN3CCN5c6cc(F)c(N7CCC(=O)NC7=O)cc6CC[C@@H]5C3)C4)cc2)C(C)(C)[C@H]1Oc1ccc(C#N)c(Cl)c1` [Compound 56], the DC50 was less than 100 nM.

With `COc1cc(O[C@H]2C(C)(C)[C@H](NC(=O)c3ccc(N4CCC(CN5CCN6c7cc(F)c(N8CCC(=O)NC8=O)cc7CC[C@H]6C5)CC4)nn3)C2(C)C)ccc1C#N` [Trifluoroacetate of compound 63], the DC50 is less than 100 nM.

As for `[2H]C([2H])([2H])Oc1cc(O[C@H]2C(C)(C)[C@H](NC(=O)c3ccc(N4CCC5(CC4)CC(CN4CCN6c7cc(F)c(C8CCC(=O)NC8=O)cc7CC[C@@H]6C4)C5)cc3)C2(C)C)ccc1C#N` (some centres unmarked) [Compound 42], the DC50 is less than 100 nM. Same read-out and setting: the same measure for `COc1cc(O[C@H]2C(C)(C)[C@H](NC(=O)c3ccc(N4CCC(N5CCN6c7cc(F)c(C(=O)N[C@H]8CCC(=O)NC8=O)cc7CC[C@H]6C5)CC4)cc3)C2(C)C)ccc1C#N` [Trifluoroacetate of compound 24]: less than 100 nM; for `COc1cc(O[C@H]2C(C)(C)[C@H](NC(=O)c3ccc(N4CCC5(CC4)CC(CN4CCN6c7cc(F)c(C(=O)N[C@H]8CCC(=O)NC8=O)cc7CC[C@@H]6C4)C5)cc3)C2(C)C)ccc1C#N` [Trifluoroacetate of compound 5]: less than 100 nM; for `[2H]C([2H])([2H])Oc1cc(O[C@H]2C(C)(C)[C@H](NC(=O)c3ccc(N4CCC5(CC4)CC(CN4CCN6c7cc(F)c(N8CCC(=O)NC8=O)cc7CC[C@@H]6C4)C5)cc3)C2(C)C)ccc1C#N` [Trifluoroacetate of compound 44]: less than 100 nM. Take `CC1(C)[C@H](NC(=O)c2ccc(N3CCC4(CC3)CC(CN3CCN5c6cc(F)c(C7CCC(=O)NC7=O)cc6CC[C@H]5C3)C4)cc2)C(C)(C)[C@H]1Oc1ccc(C#N)c(Cl)c1` (some centres unmarked) [Compound 55]: the DC50 was less than 100 nM. As for `CC1(C)[C@H](NC(=O)c2ccc(N3CCC(CN4CCN5c6cc(F)c(N7CCC(=O)NC7=O)cc6CC[C@H]5C4)CC3)cc2)C(C)(C)[C@H]1Oc1ccc(C#N)c(Cl)c1` [Compound 51], the DC50 is less than 100 nM. As for `COc1cc(O[C@H]2C(C)(C)[C@H](NC(=O)c3ccc(N4CCC5(CC4)CC(CN4CCN6c7cc(F)c(C8CCC(=O)NC8=O)cc7CC[C@@H]6C4)C5)cc3)C2(C)C)ccc1C#N` (some centres unmarked) [Trifluoroacetate of compound 9], the DC50 is less than 100 nM. Still for that read-out and setting: in the case of `COc1cc(O[C@H]2C(C)(C)[C@H](NC(=O)c3ccc(N4CCC(N5CCN6c7cc(F)c(C8CCC(=O)NC8=O)cc7CC[C@@H]6C5)CC4)cc3)C2(C)C)ccc1C#N` (some centres unmarked) [Trifluoroacetate of compound 20] it was less than 100 nM; in that of `COc1cc(O[C@H]2C(C)(C)[C@H](NC(=O)c3ccc(N4CCC5(CC4)CC(N4CCN6c7cc(F)c(C(=O)N[C@H]8CCC(=O)NC8=O)cc7CC[C@H]6C4)C5)cc3)C2(C)C)ccc1C#N` [Trifluoroacetate of compound 18], less than 100 nM. `CC1(C)[C@H](NC(=O)c2ccc(N3CCC4(CC3)CC(CN3CCN5c6cc(F)c(C7CCC(=O)NC7=O)cc6CC[C@@H]5C3)C4)cc2)C(C)(C)[C@H]1Oc1ccc(C#N)c(Cl)c1` (some centres unmarked) [Compound 54]: the DC50 was less than 100 nM. Still for that read-out and setting: the same measure for `CC1(C)[C@H](NC(=O)c2ccc(N3CCC(CN4CCN5c6cc(F)c(C7CCC(=O)NC7=O)cc6CC[C@@H]5C4)CC3)cc2)C(C)(C)[C@H]1Oc1ccc(C#N)c(Cl)c1` (some centres unmarked) [Compound 48]: less than 100 nM.

With `Cc1cc(O[C@H]2C(C)(C)[C@H](NC(=O)c3ccc(N4CCC(CN5CCN6c7cc(F)c(C8CCC(=O)NC8=O)cc7CC[C@H]6C5)CC4)cc3)C2(C)C)cc(C)c1C#N` (some centres unmarked) [Compound 78], the DC50 was less than 100 nM. Take `COc1cc(O[C@H]2C(C)(C)[C@H](NC(=O)c3ccc(N4CCC(N5CCN6c7cc(F)c(C8CCC(=O)NC8=O)cc7CC[C@H]6C5)CC4)cc3)C2(C)C)ccc1C#N` (some centres unmarked) [Trifluoroacetate of compound 21]: the DC50 was less than 100 nM. Same read-out and setting: in the case of `CC1(C)[C@H](NC(=O)c2ccc(N3CCC(CN4CCN5c6cc(F)c(C7CCC(=O)NC7=O)cc6CC[C@H]5C4)CC3)cc2)C(C)(C)[C@H]1Oc1ccc(C#N)c(Cl)c1` (some centres unmarked) [Compound 49] it was less than 100 nM; in that of `COc1cc(O[C@H]2C(C)(C)[C@H](NC(=O)c3ccc(N4CCC(CN5CCN6c7ncc(C8CCC(=O)NC8=O)cc7CC[C@H]6C5)CC4)cc3)C2(C)C)ccc1C#N` (some centres unmarked) [Compound 83], less than 100 nM; in that of `COc1cc(O[C@H]2C(C)(C)[C@H](NC(=O)c3ccc(N4CCC5(CC4)CC(CN4CCN6c7cc(F)c(C8CCC(=O)NC8=O)cc7CC[C@H]6C4)C5)cc3)C2(C)C)ccc1C#N` (some centres unmarked) [Trifluoroacetate of compound 10], less than 100 nM. On the same count and under the same terms, the same measure for `Cc1cc(O[C@H]2C(C)(C)[C@H](NC(=O)c3ccc(N4CCC(CN5CCN6c7cc(F)c(N8CCC(=O)NC8=O)cc7CC[C@H]6C5)CC4)cc3)C2(C)C)cc(C)c1C#N` [Compound 80]: less than 100 nM; for `Cc1cc(O[C@H]2C(C)(C)[C@H](NC(=O)c3ccc(N4CCC(CN5CCN6c7cc(F)c(N8CCC(=O)NC8=O)cc7CC[C@@H]6C5)CC4)cc3)C2(C)C)cc(C)c1C#N` [Compound 82]: less than 100 nM; for `CC1(C)[C@H](NC(=O)c2ccc(N3CCC(CN4CCN5c6cc(F)c(N7CCC(=O)NC7=O)cc6CC[C@@H]5C4)CC3)cc2)C(C)(C)[C@H]1Oc1ccc(C#N)c(Cl)c1` [Compound 50]: less than 100 nM. As for `CC1(C)[C@H](NC(=O)c2ccc(N3CCC4(CC3)CC(CN3CCN5c6cc(F)c(C(=O)N[C@H]7CCC(=O)NC7=O)cc6CC[C@@H]5C3)C4)cc2)C(C)(C)[C@H]1Oc1ccc(C#N)c(Cl)c1` [Compound 58], the DC50 was less than 100 nM. Consider `COc1cc(O[C@H]2C(C)(C)[C@H](NC(=O)c3ccc(N4CCC(N5CCN6c7cc(F)c(C(=O)N[C@@H]8CCC(=O)NC8=O)cc7CC[C@H]6C5)CC4)cc3)C2(C)C)ccc1C#N` [Trifluoroacetate of compound 25], for which the DC50 was less than 100 nM.

Regarding `COc1cc(O[C@H]2C(C)(C)[C@H](NC(=O)c3ccc(N4CCC(CN5CCN6c7ccc(N8CCC(=O)NC8=O)cc7CCC6C5)CC4)cc3)C2(C)C)ccc1C#N` (some centres unmarked) [Compound 15], the DC50 is less than 100 nM.
